Measurements taken from ChEMBL document CHEMBL1201862, “PubChem BioAssay data set” (2004).
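Following 48 hours of exposure in 96-well plates, responses at five concentrations were used to interpolate endpoints linearly. GI50 = concentration required for 50% inhibition of growth.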 Activity calls are given as the source filed them. Cut-off read from the data, not from the text of the source: active = GI50 up to about 1.1 µM and inactive = higher.

What was measured:
Test in all cases: inhibition of tumour cell growth, NCI panel, 48 h
DLD-1 = system: DLD-1
LXFL 529 = system: LXFL 529
RXF 631 = system: RXF 631
XF498 = system: XF498

Measured: GI50

COC(=O)/C=C1\CCC(C)O1 (configuration not stated)
inactive: DLD-1 > 100 µM | LXFL 529 > 100 µM | RXF 631 > 100 µM | XF498 > 100 µM

CC1C=C(OC(=O)c2ccccc2)C(=O)C(n2cc(F)c(=O)n(C(=O)c3ccccc3)c2=O)O1 (configuration not stated)
inactive: DLD-1 41.6 µM | RXF 631 52 µM | XF498 21.8 µM

CC1NOC(=O)C1/N=N/c1ccccc1Cl (configuration not stated)
inactive: DLD-1 39.4 µM | LXFL 529 45.5 µM | RXF 631 37.1 µM | XF498 27.9 µM

CC1(C)CCc2cc3c(cc2O1)OCCC3=O
inactive: DLD-1 > 100 µM | LXFL 529 > 100 µM | RXF 631 > 100 µM | XF498 > 100 µM

CCCCN(CCCC)C(=O)C(=O)CC(=O)/C=C/c1ccccc1
inactive: DLD-1 > 100 µM | LXFL 529 > 100 µM | RXF 631 > 100 µM

CCCCCCCCCCCc1noc2c1C(=O)C(O)CC2 (configuration not stated)
inactive: LXFL 529 16.6 µM | RXF 631 17.6 µM | XF498 13.6 µM

COc1ccc(C2=Nc3ccccc3SC(C)C2)cc1OC (configuration not stated)
inactive: LXFL 529 17.4 µM | RXF 631 42.2 µM | XF498 18.2 µM

CCCCNC(=O)OCC(COc1ccccc1OC)OC(=O)NCCCC (configuration not stated)
inactive: DLD-1 > 100 µM | LXFL 529 > 100 µM | RXF 631 > 100 µM | XF498 > 100 µM

COc1ccc2c(C3(O)CCNCC3)c[nH]c2c1
inactive: DLD-1 > 100 µM | LXFL 529 > 100 µM | RXF 631 > 100 µM

CCOc1ccc(NC(=O)/C(=C\c2ccc(C)cc2)C(C)=O)cc1
inactive: DLD-1 > 100 µM | LXFL 529 > 100 µM | RXF 631 > 100 µM

Cc1cccc(NC(=O)/C=C/c2ccc(N(CCC#N)CCC#N)cc2C)c1
inactive: DLD-1 > 100 µM | LXFL 529 23.4 µM | RXF 631 > 100 µM | XF498 > 100 µM

CC(C)C.C[N+](C)(C)C.OC(c1ccccc1)(C(F)(F)F)C(F)(F)F.OC(c1ccccc1)(C(F)(F)F)C(F)(F)F.[SiH3-]
inactive: DLD-1 2.77 µM | LXFL 529 4.19 µM | RXF 631 2.58 µM | XF498 11.9 µM
